Data: patent US8476454B2, “IDO inhibitors and methods of use” (Lankenau Institute for Medical Research, priority 2003, dated 2013)
Values belong to the compound of their own block, whether it stands above or below them.

Columns and labels:
[1] = target: T1, tryptophan 2,3-dioxygenase (TDO2) (Homo sapiens, UniProt P48775); assay: cell-based screen, 293/Phoenix cells transiently transfected with TDO (selectivity); conditions: IDO versus TDO2
T1 construct: expressed in transfected cells; host or cells: human 293/Phoenix cells
Experimental: FIGS. 27A-27C provide a chart of certain IDO inhibitors, their structures, and their ability to inhibit IDO and TDO activity at a concentration of 250 μM in a cell-based assay.
The candidate compounds were also screened in a cell-based assay (for similar assay see Munn et al. (1999) J. Exp. Med. 189:1363-1372). Briefly, human 293/Phoenix cells were transiently transfected with human IDO or TDO cDNA expression vectors. The candidate compounds were added to the transfected cells at various concentrations. Kynurenine was quantitated in tissue culture media using a fluorescence-based protocol.

[2] = test system: established tumors in MMTVneu "oncomouse" model; assay: MMTVneu transgenic oncomouse model of breast cancer, change in tumor volume over two weeks; assay type: in vivo, mouse; conditions: for effect on tumor growth: two week course, 1MT 20 mg/day s.c. time-release pellets, cytotoxics i.v. at maximum-tolerated doses
From the text: The MMTVneu transgenic “oncomouse” model of breast cancer was used to measure the effects of IDO inhibitors and STIs on tumor pathophysiology. The MMTVneu transgenic mouse develops aggressive tumors of the mammary gland that resemble poorly differentiated human ductal carcinomas. In the MMTVneu mouse model, breast cancer is initiated by tissue-specific expression of a mutant form of the HER-2/Neu gene that is activated frequently in aggressive human breast ductal carcinomas. HER-2 is a member of the EGF-R family of cell surface growth factor receptors. Myc is an obligate downstream effector for HER-2/Neu to drive cancer. Female MMTVneu “oncomice” are mated twice to initiate expression from the mouse mammary tumor virus (wry) promoter which drives transcription of the Neu/HER2 oncogene in mammary tissue. Mammary tumors arise with a penetrance of >90% in this model system by 5 months of age. MMTVneu “oncomice” bearing similarly sized tumors of ˜150 mm^3 were randomly assigned to control or experimental treatment groups. Control mice were implanted with placebo time-release pellets (Innovative Research, Inc., Sarasota, Fla.).
(§1) The time-release pellets are composed of a copolymer which is inert and gradually dissolves and breaks down to a non-toxic substance that remains largely localized during the course of the experiment. […] Two pellets per mouse were implanted to deliver a total dose of 20 mg/day. Therefore, for a 25 g mouse the total dose is 800 mg/kg/day or 280 mg over a 14 day period.
Time-release pellets were introduced subcutaneously on the backs of mice anesthetized by intramuscular injection of ketamin/rompun. Blunt dissection with a hemostat is used to separate the skin from the underlying muscle to create a subcutaneous pocket. One or two biodegradable slow release pellets were implanted within this pocket, rather than directly under the incision in order to prevent mechanical stress and wound dehiscence. The incision was then closed with wound clips.
MMTVneu “oncomice” bearing similarly sized tumors of ˜150 mm^3 were randomly assigned to control or experimental treatment groups. Control mice were implanted with placebo time-release pellets (Innovative Research, Inc., Sarasota, Fla.).
The cytotoxic chemotherapeutic agents were prepared and delivered to the mice as follows. Paclitaxel was dissolved in equal volumes of absolute ethanol and the clinically-used solubilizing agent Cremophor® EL. The solution was sonicated up to 30 minutes and stored as a 20 mg/ml stock solution at 4° C. for up to one week. Before use, this solution was diluted further at 1:5 with sterile physiological saline. Paclitaxel formulated in this manner was administered to mice by a single bolus intravenous (i.v.) injection into the tail vein. Mouse tails can be warmed to facilitate identification and injection of the vein. […] The MTD of cisplatin (1 mg/kg) was obtained as a clinical preparation in saline and delivered as a bolus i.v. injection on the same schedule. Control treated mice received only the Cremophor° EL vehicle formulation without paclitaxel.
Statistical analysis of the tumors of MMTVneu mice after various treatments. Numbers are provided as percent change in tumor volume as compared to the tumor volume prior to treatment.

human IDO [3] = target: T2, human IDO (Homo sapiens, UniProt P14902); assay: cell-based screen, 293/Phoenix cells transiently transfected with human IDO, kynurenine in media
human IDO [4] = target: T2, human IDO; assay: IDO enzyme assay (kynurenine production), enzyme kinetics for Ki; assay type: biochemical
intracellular IDO = target: T3, intracellular IDO (Homo sapiens, UniProt P14902); assay: cell-based IDO inhibitor assay, COS-1 cells transiently transfected with IDO cDNA, dose escalation
T3 construct: expressed in transfected cells; host or cells: COS-1 cells, CMV promoter-driven plasmid, Lipofectamine 2000

IDO = conditions: cited from earlier work; for potency ranking as IDO inhibitor (literature): Peterson et al. 1993, 1994
[5] = HPLC analysis of mouse serum for compound level; assay type: in vivo; conditions: 2×140 mg 1MT pellets implanted subcutaneously, 3 days, male FVB mice
From the text: Protein was removed by TCA precipitation.

[6] = time-release pellets, manufacturer's specifications; cited from earlier work
allogenic conceptus = assay: allogeneic conceptus rejection in mice; assay type: in vivo, mouse; conditions: 20 mg/day from two time-release pellets; unpublished results
Experimental: as §1, with “period. Steady-state levels were reached within 12-24 hours and are maintained throughout the entire period based on the manufacturer's specifications.” for “period.”

[7] = test system: tumor growth in a mouse model; conditions: Friberg et al. 2002; U.S. Pat. No. 6,482,416; cited from earlier work
[8] = compared to the tumor volume prior to treatment, two weeks

T2 sequence (P14902 whole entry): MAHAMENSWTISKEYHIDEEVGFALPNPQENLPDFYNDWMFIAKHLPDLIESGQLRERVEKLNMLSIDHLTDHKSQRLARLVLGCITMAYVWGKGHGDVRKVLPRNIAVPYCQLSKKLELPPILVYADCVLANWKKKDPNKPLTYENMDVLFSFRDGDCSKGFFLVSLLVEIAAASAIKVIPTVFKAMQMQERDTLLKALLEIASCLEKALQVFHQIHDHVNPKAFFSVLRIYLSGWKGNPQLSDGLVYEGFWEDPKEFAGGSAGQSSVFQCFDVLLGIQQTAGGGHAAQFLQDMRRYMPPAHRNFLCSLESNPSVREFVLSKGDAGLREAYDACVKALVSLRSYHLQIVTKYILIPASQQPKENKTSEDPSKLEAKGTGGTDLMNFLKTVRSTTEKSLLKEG
T1 sequence (P48775 whole entry): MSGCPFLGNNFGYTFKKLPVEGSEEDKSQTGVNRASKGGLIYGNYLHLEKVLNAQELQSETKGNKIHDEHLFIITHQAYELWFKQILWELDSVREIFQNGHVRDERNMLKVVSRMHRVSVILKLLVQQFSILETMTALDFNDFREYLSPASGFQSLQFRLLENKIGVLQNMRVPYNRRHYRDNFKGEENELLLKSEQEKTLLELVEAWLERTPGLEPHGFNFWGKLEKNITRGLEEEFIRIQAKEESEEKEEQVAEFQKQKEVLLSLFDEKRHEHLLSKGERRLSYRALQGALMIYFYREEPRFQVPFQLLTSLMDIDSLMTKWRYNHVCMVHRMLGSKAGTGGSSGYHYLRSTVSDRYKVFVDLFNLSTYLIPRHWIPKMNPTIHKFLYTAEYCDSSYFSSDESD
T3 sequence (P14902 whole entry): as the sequence (P14902 whole entry) above

Compound: O=C1C(Cc2c[nH]c3ccccc23)NC(=S)N1c1ccccc1 (centres unmarked) [N-phenyl, 3-(N-phenyl-thiohydantoin)-indole]
selectivity over tryptophan 2,3-dioxygenase (TDO2) [1]: significant selectivity

Compound: CC(=O)O[C@H]1C(=O)[C@@]2(C)[C@H]([C@H](OC(=O)c3ccccc3)[C@]3(O)C[C@H](OC(=O)[C@H](O)[C@@H](NC(=O)c4ccccc4)c4ccccc4)C(C)=C1C3(C)C)[C@]1(OC(C)=O)CO[C@@H]1C[C@@H]2O [paclitaxel]
25% Percentile percent change in tumor volume [2, 8]: 40.25% | 75% Percentile percent change in tumor volume [2, 8]: 247.6% | Maximum percent change in tumor volume [2, 8]: 360.8% | Mean percent change in tumor volume [2, 8]: 139.4% | Median percent change in tumor volume [2, 8]: 130.4% | Minimum percent change in tumor volume [2, 8]: 20% | effect on tumor growth [2]: retarded but did not block tumor growth

Compound: C=CCN1C(=O)C(Cc2c[nH]c3ccccc23)NC1=S (centres unmarked) [N-allyl, 3-(N-allyl-thiohydantoin)-indole]
selectivity over tryptophan 2,3-dioxygenase (TDO2) [1]: significant selectivity

Compound: CN1C(=O)C(Cc2c[nH]c3ccccc23)NC1=S (centres unmarked) [MTH-Trp, 3-(N-methyl-thiohydantoin)-indole]
selectivity over tryptophan 2,3-dioxygenase (TDO2) [1]: significant selectivity | inhibition of IDO activity relative to 1MT (human IDO [3]; at a concentration of 250 μM, compared with 1MT): 2.7 times | potency ranking among screened compounds (human IDO [3]; cell-based screen): most potent of these inhibitors | potency of direct IDO enzyme inhibition relative to 1MT (human IDO [4]; compared with 1MT): about 3 fold | Ki (human IDO [4]; human IDO, global nonlinear regression of enzyme kinetic data, read-out: Best fit values of Ki): 11.4 µM | EC50 (intracellular IDO; COS-1 cells expressing IDO, 5 hours, 20 μg/ml tryptophan): 12.9 µM | potency against intracellular IDO relative to 1MT (intracellular IDO; compared with 1MT): ~20 fold

Compound: Nc1cc2ccccc2cc1C(=O)O [3-amino-2-naphthoic acid]
potency ranking as IDO inhibitor (literature) (IDO): most potent IDO inhibitor

1MT level in serum [5]: ~100 µM
Compound: Cn1cc(CC(N)C(=O)O)c2ccccc21 (racemic) [1MT, 1-methyl-DL-tryptophan]
time to steady-state levels [6]: 12 to 24 h | allogenic conceptus rejection (allogenic conceptus): effective at eliciting allogenic conceptus rejection | effect on tumor growth (literature) [7]: only retarded and did not prevent tumor growth

Compound: c1ccc2c(c1)[nH]c1sncc12 [brassilexin]
mode of IDO inhibition (literature) (IDO; Peterson et al. 1993): noncompetitive inhibitor of IDO

Compound: N.N.[Cl][Pt][Cl] [cisplatin]
Maximum percent change in tumor volume [2, 8]: 255.6% | Mean percent change in tumor volume [2, 8]: 91.35% | Median percent change in tumor volume [2, 8]: 40% | Minimum percent change in tumor volume [2, 8]: −26.53% | effect on tumor growth [2]: retarded but did not block tumor growth

Compound: CCCCc1cc2c(cn1)[nH]c1ccccc12 [3-butyl-β-carboline]
potency ranking as IDO inhibitor (literature) (IDO): most active derivative

Compound: CC[C@H](C)[C@@H](CO[C@@H](Cc1ccccc1)C(=O)N[C@@H](CCS(C)(=O)=O)C(=O)OC(C)C)NC[C@@H](N)CS [L-744,832]
effect on tumor growth [2]: retarded but did not block tumor growth
